# Reference: patent publication US20050153872A1, “Methods and compositions for the treatment of infection” (priority 2004, published 2005)
# B1: NH2-colicinIa-I626-DEADYYCNSRDS-COOH (protein)
# chain: SDPVARGITNPGAESLGYDSDGHEIMAVASPIYVASNPPRVASPVFHGTPPAWSSFGNKTIWGGNEWVASPDSPTRSDIEKRDKEITAYKNTLSAQQKENENKRTEAGKRLSAAIAAREKDENTLKTLRAGNADAADITRQEFRLLQAELREYGFRTEIAGYDALRLHTESRMLFADADSLRISPREARSLIEQAEKRQKDAQNADKKAADMLAEYERRKGILDTRLSELEKNGGAALAVLDAQQARLLGQQTRNDRAISEARNKLSSVTESLNTARNALTRAEQQLTQQKNTPDGKTIVSPEKFPGRSSTNHSIVVSGDPRFAGTIKITTSAVIDNRANLNYLLSHSGLDYKRNILNDRNPVVTEDVEGDKKIYNAEVALAEWDKLRQRLLDARNKITSAESAVASNSARNNLSARTNEQKHANDALNALLKEKENIRNQLSGINQKIAEEKRKQDELKATKDAINFTTEFLKSVSEKYGAKAEQLAREMAGQAKGKKIRNVEEALKTYEKYRADINKKINAKDRAAIAAALESVKLSDISSNLNRFSRGLGYAGKFTSLADWITEFGKAVARGTENWRPLFVKTETIIAGNAATALVALALVFSILTGSALGIIGYGLLMAVTGALIDESLVEKANKFWGIDEADYYCNSRDS
# modifications: E217 - S228 from HBV HBsAg ScFV linked to Colicin Ia
# notes: light chain CDR3 of HBV HBsAg ScFv linked to colicin Ia at residue 626
# B2: NH2-colicin Ia-I626-SYAIS-…-AAWDDSLH-COOH (protein)
# chain: MSDPVARGITNPGAESLGYDSDGHEIMAVASPIYVASNPPRVASPVFHGTPPAWSSFGNKTIWGGNEWVASPDSPTRSDIEKRDKEITAYKNTLSAQQKENENKRTEAGKRLSAAIAAREKDENTLKTLRAGNADAADITRQEFRLLQAELREYGFRTEIAGYDALRLHTESRMLFADADSLRISPREARSLIEQAEKRQKDAQNADKKAADMLAEYERRKGILDTRLSELEKNGGAALAVLDAQQARLLGQQTRNDRAISEARNKLSSVTESLNTARNALTRAEQQLTQQKNTPDGKTIVSPEKFPGRSSTNHSIVVSGDPRFAGTIKITTSAVIDNRANLNYLLSHSGLDYKRNILNDRNPVVTEDVEGDKKIYNAEVALAEWDKLRQRLLDARNKITSAESAVASNSARNNLSARTNEQKHANDALNALLKEKENIRNQLSGINQKIAEEKRKQDELKATKDAINFTTEFLKSVSEKYGAKAEQLAREMAGQAKGKKIRNVEEALKTYEKYRADINKKINAKDRAAIAAALESVKLSDISSNLNRFSRGLGYAGKFTSLADWITEFGKAVARGTENWRPLFVKTETIIAGNAATALVALALVFSILTGSALGIIGYGLLMAVTGALIDESLVEKANKFWGISYAISWVARGQAAGQGLEWMGAAWDDSLH
# modifications: CDRs from HBV PreS-1 ScFv linked to colicin Ia
# notes: two CDRs from PreS-1 (Genbank AF427148) of HBV ScFv linked to colicin Ia
# B3: NH2-colicinIa-I626-GFTFSDYYMS-COOH (protein)
# chain: SDPVARGITNPGAESLGYDSDGHEIMAVASPIYVASNPPRVASPVFHGTPPAWSSFGNKTIWGGNEWVASPDSPTRSDIEKRDKEITAYKNTLSAQQKENENKRTEAGKRLSAAIAAREKDENTLKTLRAGNADAADITRQEFRLLQAELREYGFRTEIAGYDALRLHTESRMLFADADSLRISPREARSLIEQAEKRQKDAQNADKKAADMLAEYERRKGILDTRLSELEKNGGAALAVLDAQQARLLGQQTRNDRAISEARNKLSSVTESLNTARNALTRAEQQLTQQKNTPDGKTIVSPEKFPGRSSTNHSIVVSGDPRFAGTIKITTSAVIDNRANLNYLLSHSGLDYKRNILNDRNPVVTEDVEGDKKIYNAEVALAEWDKLRQRLLDARNKITSAESAVASNSARNNLSARTNEQKHANDALNALLKEKENIRNQLSGINQKIAEEKRKQDELKATKDAINFTTEFLKSVSEKYGAKAEQLAREMAGQAKGKKIRNVEEALKTYEKYRADINKKINAKDRAAIAAALESVKLSDISSNLNRFSRGLGYAGKFTSLADWITEFGKAVARGTENWRPLFVKTETIIAGNAATALVALALVFSILTGSALGIIGYGLLMAVTGALIDESLVEKANKFWGIGFTFSDYYMS
# modifications: G28 - S37 from HBV HBsAg ScFV linked to Colicin Ia
# notes: heavy chain CDR1 of HBV HBsAg ScFv linked to colicin Ia at residue 626
# Experiments:
# [1] = system: Aspergillus niger SWA 1011 strain; experiment: In vitro cell growth inhibition assay; conditions: Ph-CA 5 μg/ml; Ph-SA 5 μg/ml; amphotericin B 200 ng/ml; Fluconazole 3 μg/ml
# [2] = system: Candida albicans ATCC 10231; experiment: In vitro cell growth inhibition assay (OD595, filaments); conditions: Ph-CA 5 μg/ml; Ph-SA 5 μg/ml; ampicillin 50 μg/ml; amphotericin B 200 ng/ml; fluconazole 3 μg/ml
# [3] = system: SMMC-7721 cells transfected with HCV; assay type: cell-based, human; conditions: about 100 micrograms per ml
Molecule,effect on growth of Aspergillus niger [1],effect on growth of Candida albicans [2],cell count and morphological features versus control [3]
C[C@@H]1[C@H](O)[C@@H](C)/C=C/C=C/C=C/C=C/C=C/C=C/C=C/[C@H](O[C@@H]2O[C@H](C)[C@@H](O)[C@H](N)[C@@H]2O)C[C@@H]2O[C@](O)(C[C@@H](O)C[C@@H](O)[C@H](O)CC[C@@H](O)C[C@@H](O)CC(=O)O[C@H]1C)C[C@H](O)[C@H]2C(=O)O [amphotericin B],inhibited Aspergillus niger growth,completely inhibited C. albicans growth,–
OC(Cn1cncn1)(Cn1cncn1)c1ccc(F)cc1F [fluconazole],no effect on the growth,no effect on the growth,–
B1,–,–,A portion of the treated cells died in comparison with the control and the rest became swollen and/or deformed
B2,–,–,Cell swelling occurred in certain cells
B3,–,–,Some of the treated cells died in comparison with the control and the rest became swollen and/or deformed
